Laboratory results published in patent US20260191858A1, “COMBINATION THERAPIES” (Kallyope, Inc., priority 2022, published 2026).

Molecular target: T1, human GPR119 (hGPR119) (Homo sapiens, UniProt Q8TDV5)
T1 construct: expressed in transfected cells; host or cells: CHO-K1
T1 sequence (Q8TDV5 1-335): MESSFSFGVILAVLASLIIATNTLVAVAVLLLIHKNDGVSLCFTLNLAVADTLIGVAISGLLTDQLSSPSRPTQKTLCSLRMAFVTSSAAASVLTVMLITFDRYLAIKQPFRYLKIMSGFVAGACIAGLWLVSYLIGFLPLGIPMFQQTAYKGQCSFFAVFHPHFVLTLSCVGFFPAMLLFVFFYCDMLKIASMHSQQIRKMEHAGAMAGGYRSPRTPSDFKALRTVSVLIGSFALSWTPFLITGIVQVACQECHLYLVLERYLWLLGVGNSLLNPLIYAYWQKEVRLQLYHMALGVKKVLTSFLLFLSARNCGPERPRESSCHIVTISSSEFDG
Test: cAMP accumulation assay in CHO-K1 cells stably expressing hGPR119
Assay type: cell-based
Settings: cAMP HTRF, 60 minutes
Description: CHO-K1 cells stably expressing human GPR119 (hGPR119) were prepared by transfection of a GPR119-carrying plasmid using Lipofectamine 2000 (following manufacturer instructions). A stable cell line was established using the limiting dilution method with geneticine selection. Assay-ready frozen (ARF) cells were prepared and used throughout the study.
The assay was performed in a 384-well plate format using the CAMP Gs dynamic assay kit from Cisbio. ARF cells expressing hGPR119 were thawed, washed and then resuspended in CAMP stimulation buffer at a cell density of 1.1×10^6 cells/mL. Cells were plated at a density of ~10,000 cells/well (9 μL/well). Dose response curves for the tested compounds were prepared in a cAMP stimulation buffer, containing 0.1% Tween 80 at 4 fold the final concentration. The compounds were then transferred to the cell plates using BRAVO (3 μL/well) and the plates were incubated for 60 minutes at 37° C./5% CO2. Detection buffer (10 μL, prepared as described in the CAMP Gs dynamic kit) were added to each well, and the plates were incubated at ambient temperature for 1 hr.
RT-FRET was measured using a ClarioSTAR plate reader, calculating the ratio between emissions at 665 nm and 620 nm (HTRF ratio). The HTRF ratio for positive (Max) and negative (Min) controls were used to normalize HTRF data and generate values for % activity. EC50 and Max activity values were determined using a standard 4-parameter fit.

| SMILES | EC50 [nM] |
| --- | --- |
| CCCc1cnc(N2CCC(CCCOc3ccc(CC(=O)N4CC(CNC[C@H](O)[C@@H](O)[C@H](O)[C@H](O)CO)C4)c(F)c3)CC2)nc1 [Compound A44, 2-(2-fluoro-4-(3-(1-(5-propylpyrimidin-2-yl)piperidin-4-yl)propoxy)phenyl)-1-(3-((((2S,3R,4R,5R)-2,3,4,5,6-pentahydroxyhexyl)amino)methyl)azetidin-1-yl)ethan-1-one] | 100 to 1000 |
| O=C(Cc1ccc(OCCCC2CCN(c3ncc(Cl)cn3)CC2)cc1F)N1CC(CNC[C@H](O)[C@@H](O)[C@H](O)[C@H](O)CO)C1 [Compound A14, 2-[4-[3-[1-(5-chloropyrimidin-2-yl)-4-piperidyl]propoxy]-2-fluoro-phenyl]-1-[3-[[[(2S,3R,4R,5R)-2,3,4,5,6-pentahydroxyhexyl]amino]methyl]azetidin-1-yl]ethanone] | 100 to 1000 |
| CCc1cnc(N2CCC(CCCOc3ccc(CC(=O)N4CC(CNCCNC(=O)NC(CO)(CO)CO)C4)c(F)c3)CC2)nc1 [Compound A35, 1-(1,3-dihydroxy-2-(hydroxymethyl)propan-2-yl)-3-(2-(((1-(2-(4-(3-(1-(5-ethylpyrimidin-2-yl)piperidin-4-yl)propoxy)-2-fluorophenyl)acetyl)azetidin-3-yl)methyl)amino)ethyl)urea] | ≤ 100 |
| O=C(Cc1c(F)cc(OCCCC2CCN(c3ncc(Cl)cn3)CC2)cc1F)N1CC(CNC[C@H](O)[C@@H](O)[C@H](O)[C@H](O)CO)C1 [Compound A25, 2-[4-[3-[1-(5-chloropyrimidin-2-yl)-4-piperidyl]propoxy]-2,6-difluoro-phenyl]-1-[3-[[[(2S,3R,4R,5R)-2,3,4,5,6-pentahydroxyhexyl]amino]methyl]azetidin-1-yl]ethanone] | ≤ 100 |
| O=C(CC1CN(C(=O)Cc2c(F)cc(OCCCC3CCN(c4ncc(Cl)cn4)CC3)cc2F)C1)NCC(O)(CO)CO [Compound A9, 2-[1-[2-[4-[3-[1-(5-chloropyrimidin-2-yl)-4-piperidyl]propoxy]-2,6-difluoro-phenyl]acetyl]azetidin-3-yl]-N-[2,3-dihydroxy-2-(hydroxymethyl)propyl]acetamide] | ≤ 100 |
| O=C(NC(CO)(CO)CO)C1CN(C(=O)Cc2c(F)cc(OCCCC3CCN(c4ncc(Cl)cn4)CC3)cc2F)C1 [Compound A1, 1-[2-[4-[3-[1-(5-chloropyrimidin-2-yl)-4-piperidyl]propoxy]-2,6-difluoro-phenyl]acetyl]-N-[2-hydroxy-1,1-bis(hydroxymethyl)ethyl]azetidine-3-carboxamide] | ≤ 100 |
| CCc1cnc(N2CCC(CCCOc3cc(F)c(CC(=O)N4CC(CNCC(O)(CO)CO)C4)c(F)c3)CC2)nc1 [Compound A37, 1-(3-(((2,3-dihydroxy-2-(hydroxymethyl)propyl)amino)methyl)azetidin-1-yl)-2-(4-(3-(1-(5-ethylpyrimidin-2-yl)piperidin-4-yl)propoxy)-2,6-difluorophenyl)ethan-1-one] | ≤ 100 |

The remaining lines, values ahead:

| EC50 [nM] | SMILES |
| --- | --- |
| ≤ 100 | O=C(NC(CO)(CO)CO)C1CN(C(=O)Cc2ccc(OCCCC3CCN(c4ncc(Cl)cn4)CC3)cc2F)C1 [Compound A4, 1-[2-[4-[3-[1-(5-chloropyrimidin-2-yl)-4-piperidyl]propoxy]-2-fluoro-phenyl]acetyl]-N-[2-hydroxy-1,1-bis(hydroxymethyl)ethyl]azetidine-3-carboxamide] |
| ≤ 100 | O=C(Cc1ccc(OCCCC2CCN(c3ncc(Cl)cn3)CC2)cc1F)N1CC(CNC[C@@H](O)[C@H](O)[C@H](O)CO)C1 [Compound A62, 2-[4-[3-[1-(5-chloropyrimidin-2-yl)-4-piperidyl]propoxy]-2-fluoro-phenyl]-1-[3-[[[(2R,3S,4R)-2,3,4,5-tetrahydroxypentyl]amino]methyl]azetidin-1-yl]ethanone] |
| ≤ 100 | O=C(Cc1ccc(OCCCC2CCN(c3ncc(Cl)cn3)CC2)cc1F)N1CC(CCNCC(CO)CO)C1 [Compound A27, 2-(4-(3-(1-(5-chloropyrimidin-2-yl)piperidin-4-yl)propoxy)-2-fluorophenyl)-1-(3-(2-((3-hydroxy-2-(hydroxymethyl)propyl)amino)ethyl)azetidin-1-yl)ethan-1-one] |
